{"source": "paper PMC12251151", "about": "“Understanding Anti-Obesity Potential of Four Porphyrin Compounds by Investigating Pancreatic Lipase Inhibition” (Molecules, 2025)", "origin": "cited, not measured here", "key": {"[1]": {"molecular_target": "α-glucosidase", "design": "method as in PMID 36603279", "conditions": "read-out: IC50 inhibiting α-glucosidase; cited from earlier work"}, "[2]": {"molecular_target": "α-amylase", "design": "method as in PMID 36603279", "conditions": "read-out: IC50 inhibiting α-amylase; cited from earlier work"}}}
{"smiles": "COc1ccc([C@@H]2CC(=O)c3c(O)cc(O)cc3O2)cc1O", "note": "[Hsp, hesperetin]", "values": [{"measurement": "IC50", "setting": "[1]", "result": "55.2 ± 0.1", "unit": "µM"}, {"measurement": "IC50", "setting": "[2]", "result": "115.6 ± 1.1", "unit": "µM"}]}
